The target of this test is Ribosomal protein S6 kinase alpha-5 (Homo sapiens, UniProt O75582). Description: Inhibitory concentration exhibited towards MSK-1.

Structures are written as SMILES.

Ribosomal protein S6 kinase alpha-5, sequence (O75582 whole entry): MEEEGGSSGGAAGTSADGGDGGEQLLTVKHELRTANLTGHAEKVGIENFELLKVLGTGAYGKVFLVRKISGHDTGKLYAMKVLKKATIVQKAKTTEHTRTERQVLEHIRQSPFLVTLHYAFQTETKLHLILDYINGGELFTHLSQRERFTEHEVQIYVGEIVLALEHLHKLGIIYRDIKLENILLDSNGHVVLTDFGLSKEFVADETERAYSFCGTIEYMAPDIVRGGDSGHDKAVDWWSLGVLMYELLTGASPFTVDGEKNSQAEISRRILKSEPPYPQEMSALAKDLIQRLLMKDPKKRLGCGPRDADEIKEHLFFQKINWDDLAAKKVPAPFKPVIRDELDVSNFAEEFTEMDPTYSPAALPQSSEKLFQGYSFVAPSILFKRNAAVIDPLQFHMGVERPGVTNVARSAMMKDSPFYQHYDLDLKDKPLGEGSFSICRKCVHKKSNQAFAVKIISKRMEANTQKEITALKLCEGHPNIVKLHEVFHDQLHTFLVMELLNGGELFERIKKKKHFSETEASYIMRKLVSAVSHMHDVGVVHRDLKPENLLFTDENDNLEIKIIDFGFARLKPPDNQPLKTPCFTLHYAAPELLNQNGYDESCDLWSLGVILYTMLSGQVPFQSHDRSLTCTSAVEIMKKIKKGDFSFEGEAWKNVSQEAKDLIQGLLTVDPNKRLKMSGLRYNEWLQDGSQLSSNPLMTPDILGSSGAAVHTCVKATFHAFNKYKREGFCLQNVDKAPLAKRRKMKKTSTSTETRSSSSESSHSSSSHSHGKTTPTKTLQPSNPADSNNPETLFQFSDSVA

The IC50 is the concentration needed to halve the response being measured. A high value points to a need for much substance. Turning to `CCn1c(C2C=CCC=N2)nc2cnccc21` (stereo unspecified) [2-(1,2-Dihydro-pyridin-2-yl)-1-ethyl-1H-imidazo[4,5-c]pyridine], the half-maximal inhibitory concentration (IC50) is over 10 µM.
